From US11054413B2, “Materials and methods for assaying living cells” (UNIVERSITY OF MARYLAND, COLLEGE PARK, priority 2014, dated 2021)
Entries after “also recorded” stand apart in the source; their conditions may differ.

Assays:
MDA-436 cells = assay: Automated McTN analysis (FIG. 24); format: cell-based, human; conditions: at least 10 random cells
Excerpt: FIG. 24. Automated McTN analysis. […] A gradient vector flow snake algorithm was used to define the cell edges and a local curvature maxima effectively identified McTN ends (yellow diamonds). […] This automated cell shape analysis will also enable calculations of average McTN length, curvature, etc. that will yield more multi-dimensional data for McTN studies.

[1] = system: MDA-436 breast tumor cells; assay: Quantitative image analysis of time-dependent McTN metrics and tip tracking (FIG. 36-37); format: cell-based, human
Excerpt: FIG. 36. Quantitative image analysis of time-dependent McTN metrics. A) MDA-436 breast tumor cells that were tethered with a PEM+DOTAP surface coating were imaged for McTNs with confocal microscopy (5 z-slices of 1 μm, max intensity projection shown). A custom MATLAB algorithm was applied to the image data to find the cell periphery (Perimeter trace) and then locate local points of maximum perimeter curvature (McTN Tracker). B) Analyzing cells at 10 s timepoints allows the dynamic movement of McTNs under vehicle-treated conditions to be appreciated (blue lines).
FIG. 37. Tracking individual McTN tip motion. Applying a particle-tracking algorithm to the McTN tips identified in FIG. 36 allows the movement of individual McTN tips (color-coded) to be followed over time.
Using breast cancer cell lines, we developed a custom MATLAB algorithm to identify McTN ends (points of local surface curvature maxima on a perimeter trace). Combined with automated identification of the cell body (erosion mask), both the number and lengths of individual McTNs can be defined. Now that we have succeeded in tethering tumor cells to PEM-DOTAP surfaces, it dramatically improves our ability to collect time-lapse confocal imaging without the blurring that occurs with even minor cell drift. […] By comparison, the variance of all three measures is reduced in Taxol-treated cells, reflecting the effect of stabilizing microtubules. Individual McTN tips can also be followed with MATLAB particle tracking to quantitate McTN dynamics (FIG. 37).

MDA-MB-436 cells [2] = assay: Real-time McTN imaging of PEM-DOTAP tethered cells with drug treatment (FIG. 29B); format: cell-based, human; conditions: for McTN formation: PEM-DOTAP tether; for McTN dynamics over time: compared to vehicle control, time-lapse
Method: FIG. 29. Lipid tethering allows for real-time microtentacle imaging in response to drug treatment and minimizes effects of drift. (A) Microtentacle (arrows) imaging of MDA-MB-436 cells seeded on micro-slides with PEM-no tether (i-iii) and PEM-DOTAP tether (iv-vi). Representative […] slice (i and iv), maximum z-projection of 5 slices at one time point (ii and v), and maximum t-projection after 20 frames (iii and vi) are shown at 60× magnification. (B) Microtentacle (arrow) imaging of MDA-MB-436 cells seeded on micro-slides with PEM-DOTAP tether after treatment with 5 uM colchicine for 15 minutes and 1 μg/ml Taxol for 120 minutes. Maximum intensity z-projections of five […] slices at one time point are shown at 60× magnification. Scale bar represents […]
MDA-MB-436 cells were trypsinized, spun down, and resuspended in phenol red-free and serum-free DMEM. Cells were seeded on PEM coated micro-slides with 4 bilayers and PEM coated micro-slides with 4 bilayers and the addition of DOTAP (50,000 cells/channel). Cells were incubated for 1 h to allow for tethering. After 1 h, one wash was done where the existing media was gently removed from the bottom port of each channel and fresh media was added to top port. This wash was to ensure only tethered cells were analyzed. After this wash, CellMask orange cell membrane dye was added to each channel to a final concentration of 1:10,000. McTN imaging was done on an Olympus FV100 confocal laser scanning microscope at 60× magnification. Five 1 uM slices and 20 frames at a 10 sec frame rate were taken for at least five image sets for each condition. Colchicine was added to each channel at a final concentration of 5 uM and cells were imaged after 15 minutes. Taxol was added to each channel at final concentration of 1 μg/ml and imaged after 120 minutes. Cells were again imaged with five […] slices and 20 frames at a 10 second frame rate.

Patient-derived cells = assay: McTN and stem cell responses of patient-derived cells to drugs (Table 2, predicted); format: cell-based, human; conditions: 30 minutes at the concentration given
Method: Patient-derived cells are treated with either vehicle (0.1% DMSO) or each of the drugs in Table 2 at the indicated concentration for 30 minutes and then analyzed for McTN incidence.

MDA-MB-436 cells [3] = assay: Tethering washing, cell retention; format: cell-based, human
Method: (§1) MDA-MB-436 and MCF-7 cells were seeded on PEM coated micro-slides with 4 bilayers and addition of DOPC or DOTAP (50,000 cells/channel). Cells were incubated for 1 h to allow for tethering. To quantify initial cell number, three images per channel were taken for each condition at time 0. After 1 h, existing media was gently removed from the bottom port of each channel and fresh media was added to the top port. Following a wash, three images were taken per channel for each condition using an Olympus CKX41 microscope at 4× magnification. This process was repeated for each wash. The area of the image occupied with cells (as a percent) was quantified using CellProfiler and the average from three images was calculated. The average percentage for each condition was then normalized to the area occupied at time 0.

MCF-7 cells = assay: Tethering washing, cell retention; format: cell-based, human
Method: as §1

tumor cells [4] = assay: Retention of tethered cells after formaldehyde crosslinking of DOTAP to PEM (FIG. 38B); format: cell-based; conditions: DOTAP crosslinked to PEM with formaldehyde vs charge interaction, multiple washes
Excerpt: FIG. 38. PEM coating for McTN studies.
We assembled PEMs from alternating layers of polymethacrylic acid (PMA) and polyacrylamide (PAAm) to coat microfluidic channels with very thin (100-1000 Angstroms) multilayers that retain high optical clarity. […] This crosslinking approach enables us to conduct improved imaging, time-dependent drug treatments without causing cell drift, but also illustrates that photo-crosslinking could be used to develop patterned arrays to facilitate tumor cell mechanical measurements and cell fate studies.

CTCs = conditions: neoadjuvant treatment in advance of surgery; cited from earlier work
tumor cells [5] = conditions: tumor cells treated with taxol; cited from earlier work
[6] = system: stem cell characteristics; conditions: Gupta et al. 2009; cited from earlier work
SkBr3 cells [7] = conditions: Balzer et al. 2010, see FIG. 4; cited from earlier work
SkBr3 cells [8] = assay: McTN scoring in detached SkBr3 cells, confocal microscopy for tubulin (FIG. 4); format: cell-based; conditions: nonmetastatic SkBr3 cells
Excerpt: FIG. 4. Targeting cell division can increase McTNs. […] (Bars=mean±S.D from 3 expts. with McTNs scored blindly).

epithelial cells = conditions: Liu et al. 2012; Suprynowicz et al. 2012; cited from earlier work
[9] = terminal lipid on 4 PMA/PAAm bilayers, successive washes
[10] = first wash, 4 PMA/PAAm bilayers, 1 h tethering
[11] = Taxol 1 μg/ml, PEM+DOTAP tethered
[12] = Taxol, McTN tip particle tracking

Compound: COc1cc2c(c(OC)c1OC)-c1ccc(OC)c(=O)cc1[C@@H](NC(C)=O)CC2 [Colchicine]
- average number of McTNs per cell (MDA-436 cells; colchicine 50 μM): significantly reduces the average number of McTNs per cell
- McTNs ([1]; Colchicine 50 μM, PEM+DOTAP tethered): completely inhibits McTN generation; also recorded: completely eliminates McTNs
- McTN formation (MDA-MB-436 cells [2]; colchicine 5 uM, 15 minutes): decreases microtentacles; also recorded: inhibited McTN formation
- McTN dynamics over time (MDA-MB-436 cells [2]; colchicine): shrinks McTNs and enhances cell blebbing
- Predicted stemness & McTN effect (Patient-derived cells): Decrease

Compound: O=S(=O)(c1cccc2c(I)cccc12)N1CCCNCC1 [ML-7]
- Predicted stemness & McTN effect (Patient-derived cells): Decrease

Compound: C/C(=C\c1csc(C)n1)[C@@H]1C[C@@H]2O[C@]2(C)CCC[C@H](C)[C@H](O)[C@@H](C)C(=O)C(C)(C)[C@@H](O)CC(=O)N1 [Ixabepilone]
- Predicted stemness & McTN effect (Patient-derived cells): Increase

Compound: CCCCCCCC/C=C\CCCCCCCC(=O)OC[C@H](COP(=O)([O-])OCC[N+](C)(C)C)OC(=O)CCCCCCC/C=C\CCCCCCCC [DOPC, 1,2-dioleoyl-sn-glycero-3-phosphocholine]
- tethering of tumor cells (MDA-MB-436 cells [3]; [9]): unable to effectively tether either type of tumor cells
- tethering of tumor cells (MCF-7 cells; [9]): unable to effectively tether either type of tumor cells

Compound: C=C1C(=O)O[C@@H]2/C=C(\C)CC/C=C(\C)CC[C@@H]12 [Costunolide]
- Predicted stemness & McTN effect (Patient-derived cells): Decrease

Compound: CC(=O)O[C@@]12CO[C@@H]1C[C@H](O)[C@@]1(C)C(=O)[C@H](O)C3=C(C)[C@@H](OC(=O)[C@H](O)[C@@H](NC(=O)OC(C)(C)C)c4ccccc4)C[C@@](O)([C@@H](OC(=O)c4ccccc4)[C@H]21)C3(C)C [Docetaxel]
- Predicted stemness & McTN effect (Patient-derived cells): Increase

Compound: CCCCCCCC/C=C\CCCCCCCC(=O)OCC(C[N+](C)(C)C)OC(=O)CCCCCCC/C=C\CCCCCCCC (stereo not shown) [DOTAP, 1,2-dioleoyl-3-trimethylammonium-propane]
- cell retention (MDA-MB-436 cells [3]; [10]): 38%
- cell retention (MCF-7 cells; after five washes): 15%
- cell retention (MCF-7 cells; [10]): 80%
- retention of tethered tumor cells (tumor cells [4]): dramatically improves retention of tethered tumor cells during multiple washes; also recorded: significantly improves initial tethering efficiency and resistance to washing

Compound: CN(C)S(=O)(=O)c1ccc2c(c1)/C(=C/c1cc3c([nH]1)CCCC3)C(=O)N2 [SU6656]
- Predicted stemness & McTN effect (Patient-derived cells): Increase

Compound: CC(=O)O[C@H]1C(=O)[C@@]2(C)[C@H]([C@H](OC(=O)c3ccccc3)[C@]3(O)C[C@H](OC(=O)[C@H](O)[C@@H](NC(=O)c4ccccc4)c4ccccc4)C(C)=C1C3(C)C)[C@]1(OC(C)=O)CO[C@@H]1C[C@@H]2O [Paclitaxel]
- increase of CTCs (CTCs): more than 1000 fold
- average number of McTNs per cell (MDA-436 cells; paclitaxel 1 μM): increases McTNs, but this does not reach significance
- range of McTN measurements and variance of all metrics ([1]; Taxol 1 μg/ml, 10 s timepoints): reduced; also recorded: strongly reduces the range of McTN measurements and the variance of all metrics
- McTN length [1, 11]: increases
- number of McTNs per cell >4 μm from cell periphery (McTN number) [1, 11]: increases the number of McTNs per cell
- McTN persistence (area over which a McTN moves) [1, 12]: make McTNs more persistent
- average McTN speed [1, 12]: reduce average McTN speed
- lung trapping of tumor cells (tumor cells [5]): greater lung trapping of tumor cells
- stem cell characteristics and tumor metastasis [6]: increases stem cell characteristics and even tumor metastasis
- McTNs (SkBr3 cells [7]): strongly promote McTNs
- levels of McTNs (SkBr3 cells [8]; Paclitaxel-Taxol 1.2 μM): increases levels of McTNs dramatically
- McTN formation (MDA-MB-436 cells [2]; Taxol 1 μg/ml, 120 minutes): enhances McTNs; also recorded: enhanced McTN formation
- McTN dynamics over time (MDA-MB-436 cells [2]; taxol): hyperstabilizes McTNs dramatically decreasing their dynamics
- Predicted stemness & McTN effect (Patient-derived cells): Increase

Compound: C/C1=C\[C@H](C)C[C@H](C)OC(=O)C[C@H](c2ccc(O)cc2)NC(=O)[C@@H](Cc2c(Br)[nH]c3ccccc23)N(C)C(=O)[C@H](C)NC(=O)[C@@H](C)C1 [Jasplakinolide]
- McTNs (SkBr3 cells [7]): strongly promote McTNs
- levels of McTNs (SkBr3 cells [8]; Jas 500 nM): increases levels of McTNs dramatically
- Predicted stemness & McTN effect (Patient-derived cells): Decrease

Compound: O=S(=O)(c1cccc2cnccc12)N1CCCNCC1 [Fasudil]
- Predicted stemness & McTN effect (Patient-derived cells): Increase

Compound: C[C@@H](N)[C@H]1CC[C@H](C(=O)Nc2ccncc2)CC1 [Y-27632]
- stem cell conversion (epithelial cells): conversion is occurring
- Predicted stemness & McTN effect (Patient-derived cells): Increase

Compound: CC[C@]1(O)C[C@@H]2CN(CCc3c([nH]c4ccccc34)[C@@](C(=O)OC)(c3cc4c(cc3OC)N(C)[C@H]3[C@@](O)(C(=O)OC)[C@H](OC(C)=O)[C@]5(CC)C=CCN6CC[C@]43[C@@H]65)C2)C1 [Vinblastine]
- Predicted stemness & McTN effect (Patient-derived cells): Decrease
